Converted amounts (≈) assume the structure as drawn. Values belong to the compound of their own block, whether it stands above or below them.
What was measured:
Alpha glucosidase [1] = molecular target: T1, Alpha glucosidase (Homo sapiens, UniProt O43451+P10253+P14410+Q2M2H8); assay: Inhibition of alpha-glucosidase (unknown origin); type: protein assay
[2] = molecular target: Glucagon-like peptide 1 receptor (Homo sapiens, UniProt P43220); assay: Agonist activity at human GLP1 receptor
Plasmodium falciparum = assay: Antiplasmodial activity against multidrug-resistant Plasmodium falciparum K1 by [3H]-hypoxanthine incorporation assay; type: functional, organism-based
[3] = molecular target: T2, DNA topoisomerase 2-alpha (Homo sapiens, UniProt P11388); assay: Inhibition of topoisomerase 2 (unknown origin)
[4] = molecular target: T2, DNA topoisomerase 2-alpha; assay: Inhibition of human topoisomerase 2 by fluorescence method
Alpha glucosidase [5] = molecular target: T1, Alpha glucosidase; assay: Inhibition of alpha-glucosidase (unknown origin) using 4-nitrophenyl alpha-D-glucopyranoside as substarte preincubated for 10 mins followed by substrate addition measured after 30 mins; type: protein assay
Cathepsin L2 = molecular target: T3, Cathepsin L2 (Homo sapiens, UniProt O60911); assay: Inhibition of recombinant human cathepsin V using Z-Phe-Arg-7-amido-4-methylcoumarin as substrate by fluorescence assay
T3 sequence (O60911 whole entry): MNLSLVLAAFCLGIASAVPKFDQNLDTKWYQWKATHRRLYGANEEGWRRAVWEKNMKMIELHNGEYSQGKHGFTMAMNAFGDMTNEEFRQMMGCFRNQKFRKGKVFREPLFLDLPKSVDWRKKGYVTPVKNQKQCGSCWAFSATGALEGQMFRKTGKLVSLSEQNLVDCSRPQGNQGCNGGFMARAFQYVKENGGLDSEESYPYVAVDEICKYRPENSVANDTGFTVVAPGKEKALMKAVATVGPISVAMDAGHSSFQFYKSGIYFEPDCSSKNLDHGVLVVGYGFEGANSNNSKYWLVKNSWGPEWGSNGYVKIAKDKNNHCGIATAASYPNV

KB = assay: Cytotoxicity against human KB cells assessed as reduction in cell viability; type: functional, cell-based
NCI-H187 = assay: Cytotoxicity against human NCI-H187 cells assessed as reduction in cell viability; type: functional, cell-based
Saccharomyces cerevisiae = assay: Inhibition of yeast alpha-glucosidase using p-nitrophenyl-alpha-D-glucopyranoside as substarte preincubated for 0.5 hrs followed by substrate addition measured after 0.5 hrs relative to control; settings: concentration not given here
[6] = Inhibition of yeast alpha-glucosidase using p-nitrophenyl-alpha-D-glucopyranoside as substarte preincubated for 0.5 hrs followed by substrate addition measured after 0.5 hrs; design: species or system Saccharomyces cerevisiae
[7] = molecular target: Human immunodeficiency virus type 1 reverse transcriptase (Human immunodeficiency virus 1, UniProt Q72547); assay: Inhibition of HIV-1 reverse transcriptase

T2 sequence (P11388 whole entry): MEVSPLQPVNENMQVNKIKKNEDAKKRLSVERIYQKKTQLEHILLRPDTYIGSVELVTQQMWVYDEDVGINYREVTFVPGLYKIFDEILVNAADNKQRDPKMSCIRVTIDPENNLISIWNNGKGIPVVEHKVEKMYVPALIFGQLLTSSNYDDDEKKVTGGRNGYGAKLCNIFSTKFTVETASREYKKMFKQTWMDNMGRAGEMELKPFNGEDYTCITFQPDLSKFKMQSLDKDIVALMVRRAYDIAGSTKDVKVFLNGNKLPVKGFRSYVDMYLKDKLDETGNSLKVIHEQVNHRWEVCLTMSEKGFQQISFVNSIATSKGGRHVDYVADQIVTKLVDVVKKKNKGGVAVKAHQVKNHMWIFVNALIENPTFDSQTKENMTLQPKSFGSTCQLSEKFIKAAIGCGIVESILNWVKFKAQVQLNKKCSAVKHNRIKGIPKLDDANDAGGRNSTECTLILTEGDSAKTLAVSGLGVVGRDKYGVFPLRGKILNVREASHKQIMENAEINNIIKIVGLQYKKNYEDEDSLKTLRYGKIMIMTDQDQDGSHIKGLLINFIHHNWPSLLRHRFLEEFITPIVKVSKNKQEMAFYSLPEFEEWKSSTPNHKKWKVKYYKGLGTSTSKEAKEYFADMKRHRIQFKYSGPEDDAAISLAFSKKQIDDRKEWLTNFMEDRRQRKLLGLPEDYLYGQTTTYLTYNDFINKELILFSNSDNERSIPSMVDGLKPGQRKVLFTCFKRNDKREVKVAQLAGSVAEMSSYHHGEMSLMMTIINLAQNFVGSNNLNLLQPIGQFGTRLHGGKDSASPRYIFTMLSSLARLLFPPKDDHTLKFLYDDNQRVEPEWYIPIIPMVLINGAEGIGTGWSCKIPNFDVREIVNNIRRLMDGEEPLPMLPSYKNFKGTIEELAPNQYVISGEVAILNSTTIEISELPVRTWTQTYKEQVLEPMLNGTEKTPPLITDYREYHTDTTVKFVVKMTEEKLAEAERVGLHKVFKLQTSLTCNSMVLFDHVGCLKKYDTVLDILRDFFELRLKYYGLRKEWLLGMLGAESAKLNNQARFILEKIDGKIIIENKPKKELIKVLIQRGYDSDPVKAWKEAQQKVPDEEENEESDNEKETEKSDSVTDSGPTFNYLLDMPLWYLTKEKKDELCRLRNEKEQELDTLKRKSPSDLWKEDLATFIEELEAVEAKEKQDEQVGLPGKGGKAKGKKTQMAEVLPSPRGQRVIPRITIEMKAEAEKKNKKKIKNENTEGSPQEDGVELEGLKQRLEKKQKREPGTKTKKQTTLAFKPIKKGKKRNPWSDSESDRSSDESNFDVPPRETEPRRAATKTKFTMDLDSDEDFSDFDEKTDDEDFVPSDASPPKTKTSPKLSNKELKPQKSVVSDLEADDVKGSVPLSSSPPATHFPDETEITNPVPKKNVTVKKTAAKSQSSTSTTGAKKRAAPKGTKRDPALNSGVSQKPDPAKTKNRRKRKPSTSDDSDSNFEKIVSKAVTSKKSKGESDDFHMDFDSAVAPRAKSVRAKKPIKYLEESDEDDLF
Sequence of Glucagon-like peptide 1 receptor (P43220 whole entry): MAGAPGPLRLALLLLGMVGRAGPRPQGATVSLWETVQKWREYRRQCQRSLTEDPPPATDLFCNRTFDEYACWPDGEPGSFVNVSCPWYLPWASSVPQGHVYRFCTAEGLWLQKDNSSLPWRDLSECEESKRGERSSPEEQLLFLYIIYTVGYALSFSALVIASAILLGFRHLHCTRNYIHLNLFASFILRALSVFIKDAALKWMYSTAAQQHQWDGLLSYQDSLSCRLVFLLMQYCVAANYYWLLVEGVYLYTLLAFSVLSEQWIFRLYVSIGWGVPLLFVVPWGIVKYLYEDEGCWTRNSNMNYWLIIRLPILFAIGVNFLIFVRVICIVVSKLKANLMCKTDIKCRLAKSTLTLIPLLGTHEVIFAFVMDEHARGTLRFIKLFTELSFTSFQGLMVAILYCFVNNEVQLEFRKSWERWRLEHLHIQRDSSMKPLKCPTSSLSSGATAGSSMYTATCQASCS

Structure (SMILES): COc1cc([C@H]2[C@](NC(=O)c3ccc(NC(=O)OC(C)(C)C)cc3)(C(=O)O)[C@@H](c3ccc(OC(=O)c4cccs4)c(OC)c3)[C@]2(NC(=O)c2ccc(NC(=O)OC(C)(C)C)cc2)C(=O)O)ccc1OC(=O)c1cccs1
- EC50 [2]: 0.847 µM

Structure (SMILES): COc1cc(OC)c2c(c1OC)O[C@H]1c3c(OC)cc(OC)c(OC)c3O[C@H](c3ccccc3)[C@H]1[C@@H]2/C=C/c1ccccc1 [DEPENDENSIN]
- IC50 (Plasmodium falciparum): 3.02 to 4.21 µg/mL (≈ 5.06 to 7.06 µM)

Structure (SMILES): O=C(/C=C/c1ccc(O)cc1)c1ccc2c(c1O)[C@H](C(=O)c1ccc(O)cc1O)[C@@H](c1ccc(O)cc1)O2
- IC50 [3]: 2.1 µM
- IC50 [4]: 15.3 µM

Structure (SMILES): O=C(c1ccc(O)cc1O)[C@@H]1[C@H](c2ccc(O)cc2)c2cc(O)c(O)cc2[C@H](O)[C@@H]1C(=O)c1ccc(O)cc1
- IC50 (Cathepsin L2): 1.4 µM

Structure (SMILES): O=C(c1ccc(O)cc1O)[C@H]1[C@H](c2ccc(O)cc2)c2cc(O)c(O)cc2[C@H](O)[C@]1(O)C(=O)c1ccc(O)cc1
- IC50 (Cathepsin L2): 0.42 µM

Structure (SMILES): COc1cc(OC)c(OC)c2c1C[C@H]1[C@@H](/C=C/c3ccccc3)c3c(OC)cc(OC)c(OC)c3O[C@@]1(c1ccccc1)O2
- IC50 (Plasmodium falciparum): 3.02 to 4.21 µg/mL (≈ 5.06 to 7.06 µM)

Structure (SMILES): C=CC(C)(C)c1c2c(c(O)c3c1OC(C)(C)C=C3)C=C([C@H]1CC(C)(C)Oc3c1c(O)c1ccc(=O)oc1c3C(C)(C)C=C)CO2
- IC50 (KB): 5.95 µg/mL (≈ 9.74 µM)
- IC50 (NCI-H187): 7.1 µg/mL (≈ 11.6 µM)

Structure (SMILES): O=C(/C=C/c1ccc(O)cc1)c1cc2c(cc1O)O[C@H](c1ccc(O)cc1)[C@H]2C(=O)c1ccc(O)cc1O
- IC50 [4]: 14.5 µM

Structure (SMILES): O=C1c2ccc(O)cc2OC2c3cc(O)c(O)cc3[C@@H](c3ccc(O)cc3)[C@@H](C(=O)c3ccc(O)cc3O)C12 (stereo partly specified)
- IC50 (Cathepsin L2): 0.7 µM

Structure (SMILES): Oc1ccc(/C=C/c2cc(O)c3c(-c4cc(O)cc(O)c4)c(-c4ccc(O)cc4)oc3c2)cc1
- IC50 [7]: 8 µM

Structure (SMILES): COc1cc(OC)c([C@@H]2Oc3c(OC)c(OC)cc(OC)c3[C@@H](/C=C/c3ccccc3)[C@H]2C(=O)c2ccccc2)c(O)c1OC
- IC50 (Plasmodium falciparum): 3.02 to 4.21 µg/mL (≈ 4.93 to 6.87 µM)

Structure (SMILES): COc1cc([C@H]2[C@](NC(=O)c3ccc(NC(=O)C(C)C)cc3)(C(=O)O)[C@@H](c3ccc(OC(=O)c4cccs4)c(OC)c3)[C@]2(NC(=O)c2ccc(NC(=O)C(C)C)cc2)C(=O)O)ccc1OC(=O)c1cccs1
- EC50 [2]: 0.203 µM

Structure (SMILES): COc1cc(OC)c2c(c1OC)C=C(C(=O)c1ccccc1)C1(C=C(c3ccccc3)Oc3c(OC)c(OC)cc(OC)c31)O2 (stereo unspecified)
- IC50 (Plasmodium falciparum): 3.02 to 4.21 µg/mL (≈ 4.96 to 6.92 µM)

Structure (SMILES): COc1cc(OC)c([C@@H]2Oc3c(OC)c(OC)cc(OC)c3[C@H](/C=C/c3ccccc3)[C@@H]2C(=O)c2ccccc2)c(O)c1OC
- IC50 (Plasmodium falciparum): 3.02 to 4.21 µg/mL (≈ 4.93 to 6.87 µM)

Results, then the compound that gave them:

- IC50 (Alpha glucosidase [1]): 8.8 to 9.8 µM
Structure (SMILES): C=C(C)C(COc1c2occc2c(OC)c2ccc(=O)oc12)OC(C)(C)[C@H](O)COc1c2ccoc2cc2oc(=O)ccc12 (stereo partly specified)

- IC50 (Alpha glucosidase [1]): 8.8 to 9.8 µM
Structure (SMILES): C=C(C)C(COc1c2occc2cc2ccc(=O)oc12)OC(C)(C)[C@H](O)COc1c2ccoc2cc2oc(=O)ccc12 (stereo partly specified)

- IC50 (Alpha glucosidase [5]): 760 µg/mL (≈ 1570 µM)
Structure (SMILES): O=c1ccc2ccc(O)c(-c3c(OC4O[C@H](CO)[C@@H](O)[C@H](O)[C@H]4O)ccc4ccc(=O)oc34)c2o1 (stereo partly specified)

- IC50 (Alpha glucosidase [5]): 231 µg/mL (≈ 334 µM)
Structure (SMILES): COc1cc2cc(Oc3cc(O[C@@H]4O[C@H](CO)[C@@H](O)[C@H](O)[C@H]4O[C@@H]4O[C@H](CO)[C@@H](O)[C@H](O)[C@H]4O)c4ccc(=O)oc4c3)c(=O)oc2cc1O

- IC50 (Alpha glucosidase [5]): 780 µg/mL (≈ 1210 µM)
Structure (SMILES): O=c1ccc2ccc(Oc3cc4ccc(O)c(-c5c(OC6O[C@H](CO)[C@@H](O)[C@H](O)[C@H]6O)ccc6ccc(=O)oc56)c4oc3=O)cc2o1 (stereo partly specified)

- IC50 (Alpha glucosidase [1]): 8.8 to 9.8 µM
Structure (SMILES): C=C(C)C(COc1c2ccoc2cc2oc(=O)ccc12)OC(C)(C)C(O)COc1c2occc2c(OC)c2ccc(=O)oc12 (stereo unspecified)

- inhibition (Saccharomyces cerevisiae): > 65%
- IC50 [6]: 16.3 µM
Structure (SMILES): Cc1c(-c2c(O)ccc3c(C)cc(=O)oc23)c(=O)oc2cc(O)ccc12

- inhibition (Saccharomyces cerevisiae): > 65%
- IC50 [6]: 36.8 µM
Structure (SMILES): Cc1cc(=O)oc2cc(O)c(-c3c(C)c4ccc(O)cc4oc3=O)cc12
